Read-outs that look alike come from different tables or passages of the source.
Experiments:
PDE4D = molecular target: T1, PDE4D (Homo sapiens, UniProt Q08499); experiment: PDE4 IC50 determination by Scintillation Proximity Assay, PDE4D; type: biochemical
T1 construct: PDE4D: The catalytic domain of human PDE4B from S3 16-V692; His6 (N); thrombin cleavage site (N); made in house; host or cells: E. coli
Procedure, shortened: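 Radiometric SPA: PDE4B (80 ng/ml) or PDE4D (4 ng/ml) hydrolysed [^3H]cAMP over 30 min at 30°, and the bead-bound [^3H]AMP was scintillation-counted.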

[1] = molecular target: T2, full-length human PDE4B2 isozyme (Homo sapiens, UniProt Q07343); experiment: PDE4 IC50 determination by Scintillation Proximity Assay, PDE4B2; type: biochemical
T2 construct: The full-length human PDE4B2 isozyme; His6 (N); TEV cleavage site (N); made in house; host or cells: baculovirus infected insect cells (unpurified lysate)
T2 sequence (Q07343 1-564 isoform Q07343-2): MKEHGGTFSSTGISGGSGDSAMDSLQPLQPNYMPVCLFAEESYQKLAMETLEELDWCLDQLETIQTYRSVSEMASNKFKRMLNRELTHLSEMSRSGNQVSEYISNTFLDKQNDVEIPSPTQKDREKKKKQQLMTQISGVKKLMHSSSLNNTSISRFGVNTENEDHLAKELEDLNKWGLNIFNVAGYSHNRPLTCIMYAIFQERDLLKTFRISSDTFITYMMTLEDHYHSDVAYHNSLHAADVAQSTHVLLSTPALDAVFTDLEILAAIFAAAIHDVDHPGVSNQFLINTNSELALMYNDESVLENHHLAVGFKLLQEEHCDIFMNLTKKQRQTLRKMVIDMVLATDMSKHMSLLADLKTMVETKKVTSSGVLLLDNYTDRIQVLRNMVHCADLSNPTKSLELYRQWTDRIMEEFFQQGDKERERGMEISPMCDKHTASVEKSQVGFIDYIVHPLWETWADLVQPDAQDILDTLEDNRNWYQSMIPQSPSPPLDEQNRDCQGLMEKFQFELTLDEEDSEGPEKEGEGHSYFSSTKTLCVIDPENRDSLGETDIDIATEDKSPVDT
Procedure, shortened: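 Unpurified His6-TEV-tagged full-length human PDE4B2 from baculovirus-infected insect cell lysate (2.5 μl of 50% glycerol stock/ml) hydrolysed [3H]cAMP in 50 mM Tris pH 7.5, 8.3 mM MgCl, 1.7 mM EGTA, 0.01% BSA for 30 min at 30°. Stopped with SPA beads in 18 mM ZnSO4; [3H]AMP scintillation counted, IC50 by non-linear regression.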

[2] = tested on: TNFα levels in serum of LPS-challenged rats; experiment: Rat inhibition studies: serum TNFα after iv LPS challenge; type: in vivo; conditions: read-out: % inhibition r TNFα; for inhibition in vivo at 100 mg/kg: 100 mg/kg po
Experimental: All studies were done with male rats CD (SD) IGS BR (Crl) (Charles River, France), which were grouped in to 5 animal groups.
At the end of the acclimatization period, the non-fasted rats were weighed, individually identified on the tail with a permanent marker and administered by oral (po) or interperitoneal (ip) route with either vehicle, reference or test compound in a volume of 10 mL/kg adapted to the body weight. The animals were gathered in groups of 5 animals in a polystyrene labeled cage with sawdust covered floors. 2-hours after vehicle, reference or test substance administration, rats received an intravenous (iv) injection of 0.1 mg/kg LPS in a volume of 1 mL/kg of body weight. 2 h after LPS challenge (or as indicated in Tables 3B and 4B), blood samples were collected into tubes without anticoagulant by retro-orbital puncture under gas (isoflurane) anesthesia. Samples were allowed to clot at room temperature for 5 to 10 min then put on ice until there were prepared by centrifugation (6000×g for 3 min at 4° C.) and stored at −20° C. until use. TNFα levels were measured in serum samples in duplicate by ELISA technique according to the manufacturer's procedure (Rat TNFα kit Quantikine M (RTA00, R&D System, France)). Data are reported as percent decrease in observed TNFα levels versus TNFa levels observed for vehicle dosed animal groups.

[3] = molecular target: T3, full-length human PDE4D5 isozyme (Homo sapiens, UniProt Q08499); experiment: PDE4 IC50 determination by Scintillation Proximity Assay, PDE4D5; type: biochemical
T3 construct: The full-length human PDE4D5 isozyme; His6 (N); TEV cleavage site (N); made in house; host or cells: baculovirus infected insect cells (unpurified lysate)
T3 sequence (Q08499 1-745 isoform Q08499-6): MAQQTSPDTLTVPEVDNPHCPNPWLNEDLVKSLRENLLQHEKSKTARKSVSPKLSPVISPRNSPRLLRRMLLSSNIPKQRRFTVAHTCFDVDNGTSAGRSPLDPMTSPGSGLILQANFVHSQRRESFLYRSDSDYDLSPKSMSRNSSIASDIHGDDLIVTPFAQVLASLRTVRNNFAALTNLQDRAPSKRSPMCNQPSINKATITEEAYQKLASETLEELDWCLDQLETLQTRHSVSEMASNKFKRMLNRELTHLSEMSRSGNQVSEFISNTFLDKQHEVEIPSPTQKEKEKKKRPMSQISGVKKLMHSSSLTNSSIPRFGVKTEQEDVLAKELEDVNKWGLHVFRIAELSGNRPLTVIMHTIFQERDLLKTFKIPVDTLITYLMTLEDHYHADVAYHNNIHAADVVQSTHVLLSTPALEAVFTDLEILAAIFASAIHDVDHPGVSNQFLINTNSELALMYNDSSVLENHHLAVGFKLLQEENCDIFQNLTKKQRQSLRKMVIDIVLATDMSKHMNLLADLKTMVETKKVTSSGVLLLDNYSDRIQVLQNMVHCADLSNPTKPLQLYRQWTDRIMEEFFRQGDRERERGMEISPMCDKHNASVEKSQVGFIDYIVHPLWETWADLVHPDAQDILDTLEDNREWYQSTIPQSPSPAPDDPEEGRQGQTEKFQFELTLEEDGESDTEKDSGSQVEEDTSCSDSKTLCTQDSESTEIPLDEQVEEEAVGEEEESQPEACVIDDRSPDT
Procedure, shortened: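 Unpurified His6-tagged full-length human PDE4D5 from baculovirus-infected insect cell lysate, 0.083 μl glycerol stock/ml, hydrolysed [3H]cAMP in Tris pH 7.5/MgCl/EGTA buffer, 30 min at 30°. ZnSO4/SPA beads stop; [3H]AMP counted. Controls: DMSO and roflumilast; 11-point duplicate curves, nonlinear-regression IC50.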

[4] = Table 1B, Formula I compounds, read-out: IC50 PDE4D
[5] = Table 1B, Formula I compounds, read-out: IC50 PDE4B2
[6] = po, 2 h, rat in vivo inhibition assay, 2 hr challenge delay
[7] = Table 1B, Formula I compounds, read-out: IC50 PDE4D5
[8] = 2 h, rat, po, 2 hr challenge delay
[9] = po, 2 h, rat in vivo, 2 hr challenge delay, percent decrease in TNFα versus vehicle
[10] = second part of Table 2B (2-23 to 2-103), column 5, column is PDE4D in first part, read-out: IC 50 vs. indicated assay h TNFα
[11] = second part of Table 2B (2-23 to 2-103), column 4, column is PDE4B2 in first part, read-out: IC 50 vs. indicated assay h TNFα

T1 sequence (Q08499 380-756): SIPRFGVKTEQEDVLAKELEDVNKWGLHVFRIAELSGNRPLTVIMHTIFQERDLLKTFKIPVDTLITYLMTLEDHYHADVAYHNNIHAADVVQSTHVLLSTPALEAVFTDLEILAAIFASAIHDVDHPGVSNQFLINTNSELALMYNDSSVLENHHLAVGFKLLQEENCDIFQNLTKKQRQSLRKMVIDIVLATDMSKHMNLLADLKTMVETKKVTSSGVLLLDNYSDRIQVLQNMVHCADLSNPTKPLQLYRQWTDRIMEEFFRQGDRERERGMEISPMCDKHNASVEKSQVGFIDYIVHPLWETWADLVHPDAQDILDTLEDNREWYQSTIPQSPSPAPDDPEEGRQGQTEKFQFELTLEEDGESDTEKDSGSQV

`N#Cc1c(Nc2ccccc2)sc(C(=O)C2CC2)c1N` [Compound 1-28, 4-Amino-5-cyclopropanecarbonyl-2-phenylamino-thiophene-3-carbonitrile] gave an IC50 (PDE4D; [4]) of less than 10 µM, an IC50 [1, 5] of less than 10 µM and an inhibition in vivo at 100 mg/kg [2, 6] of less than 20%. It also gave an IC50 [3, 7] of less than 10 µM.
Work on `COc1ccc(C(=O)c2sc(Nc3ccccc3)c(C#N)c2N)cc1` [Compound 1-31] yielded an IC50 (PDE4D; [4]) of less than 10 µM, an IC50 [1, 5] of less than 10 µM and an inhibition in vivo at 200 mg ([2]; 1 h, rat, 200 mg, po, 1 hr challenge delay) of less than 20%. The inhibition in vivo at 100 mg/kg [2, 6] was greater than 20% and the IC50 [3, 7] was less than 10 µM.
Work on `CCOC(=O)c1c(NC2CCCC2)sc(C(=O)c2ccc(OC)cc2)c1N` [Compound 1-191, 4-Amino-2-cyclopentylamino-5-(4-methoxy-benzoyl)-thiophene-3-carboxylic acid ethyl ester] yielded an IC50 (PDE4D; [4]) of less than 10 µM, an IC50 [1, 5] of less than 10 µM and an inhibition in vivo at 50 mg [2, 8] of less than 20%. The IC50 [3, 7] was less than 10 µM.
With `N#Cc1c(Nc2ccccc2)sc(C(=O)c2cc(-c3ccccc3)no2)c1N` [Compound 1-192, 4-Amino-2-phenylamino-5-(3-phenyl-isoxazole-5-carbonyl)-thiophene-3-carbonitrile] the IC50 (PDE4D; [4]) was less than 10 µM, the IC50 [1, 5] was less than 10 µM and the inhibition in vivo at 50 mg [2, 8] was less than 20%. The IC50 [3, 7] was less than 10 µM.
For `CC(C)Nc1sc(C(=O)c2cc(-c3ccccc3)no2)c(N)c1C#N` [Compound 1-205, 4-Amino-2-isopropylamino-5-(3-phenyl-isoxazole-5-carbonyl)-thiophene-3-carbonitrile], the IC50 (PDE4D; [4]) was less than 10 µM, the IC50 [1, 5] was greater than 10 µM and the inhibition in vivo at 100 mg/kg [2, 6] was less than 20%.
In the case of `CC(C)Nc1sc(C(=O)c2cc(-c3ccc(Cl)cc3)no2)c(N)c1C#N` [Compound 1-212, 4-Amino-5-[3-(4-chloro-phenyl)-isoxazole-5-carbonyl]-2-isopropylamino-thiophene-3-carbonitrile], the IC50 (PDE4D; [4]) is reported as greater than 10 µM, the IC50 [1, 5] is reported as less than 10 µM and the inhibition in vivo at 90 mg ([2]; 2 h, rat, 90 mg, po, 2 hr challenge delay) is reported as greater than 20%. The IC50 [3, 7] was greater than 10 µM.
In the case of `CC(C)CNc1sc(C(=O)c2cc(-c3ccccc3)no2)c(N)c1C(N)=O` [Compound 1-236, 4-Amino-2-isobutylamino-5-(3-phenyl-isoxazole-5-carbonyl)-thiophene-3-carboxylic acid amide], the IC50 (PDE4D; [4]) is reported as less than 10 µM, the IC50 [1, 5] is reported as less than 10 µM and the inhibition in vivo at 50 mg ([2]; 2 h, rat, ip, 2 hr challenge delay) is reported as greater than 20%. The inhibition in vivo at 50 mg [2, 8] was greater than 20% and the IC50 [3, 7] was less than 10 µM.
Work on `NC(=O)c1c(NC2CCCC2)sc(C(=O)c2cc(-c3ccccc3)no2)c1N` [Compound 1-251, 4-Amino-2-cyclopentylamino-5-(3-phenyl-isoxazole-5-carbonyl)-thiophene-3-carboxylic acid amide] yielded an IC50 (PDE4D; [4]) of less than 10 µM, an IC50 [1, 5] of less than 10 µM and an inhibition in vivo at 50 mg [2, 8] greater than 20%. The IC50 [3, 7] was less than 10 µM.
For `Nc1nc(Nc2ccccc2F)sc1C(=O)c1cc(-c2ccccc2)no1` [Compound 2-6, [4-Amino-2-(2-fluoro-phenylamino)-thiazol-5-yl]-(3-phenyl-isoxazol-5-yl)-methanone], the IC50 (PDE4D; first part of Table 2B (2-1 to 2-22), read-out: IC 50 vs. indicated assay PDE4D) was less than 10 µM, the IC50 ([1]; first part of Table 2B (2-1 to 2-22), read-out: IC 50 vs. indicated assay PDE4B2) was less than 10 µM and the inhibition in vivo at 100 mg/kg [2, 9] was greater than 20%. For the same compound, the IC50 ([3]; first part of Table 2B (2-1 to 2-22), read-out: IC 50 vs. indicated assay PDE4D5) was less than 10 µM.
`Nc1nc(Nc2ccc(Cl)cc2)sc1C(=O)c1cccc(C(F)(F)F)c1` [Compound 2-23, [4-Amino-2-(4-chloro-phenylamino)-thiazol-5-yl]-(3-trifluoromethyl-phenyl)-methanone] showed an IC50 (PDE4D; [10]) of less than 10 µM, an IC50 [1, 11] of less than 10 µM and an inhibition in vivo at 100 mg/kg [2, 9] of less than 20%.
With `Nc1nc(NC2CCCC2)sc1C(=O)c1cccc(Cl)c1` [Compound 2-80, (4-Amino-2-cyclopentylamino-thiazol-5-yl)-(3-chloro-phenyl)-methanone] the IC50 (PDE4D; [10]) was less than 10 µM, the IC50 [1, 11] was less than 10 µM and the inhibition in vivo at 100 mg/kg [2, 9] was greater than 20%.

From patent US7585859B2, “PDE4B inhibitors and uses therefor” (Plexxikon, Inc., priority 2004, dated 2009)
